Measurements as given in PMC3095640, “Potent Host-Directed Small-Molecule Inhibitors of Myxovirus RNA-Dependent RNA-Polymerases” (PLoS ONE, 2011).
Where two headings read alike, the source gives them in different places.

Tests used:
SOI Influenza A/Mexico = assay: Virus yield reduction assay, SOI influenza A/Mexico; assay type: cell-based, swine-origin influenza virus isolate S-OIV Mexico; settings: genome copy numbers of released progeny particles by TaqMan RT-PCR
[1] = system: MeV H and F mediated cell-to-cell fusion; assay: MeV glycoprotein-mediated cell-to-cell fusion assay; design: species or system measles virus; settings: microscopic and luciferase reporter-based
MuV (S. Africa) = assay: microbe, parasite or virus in culture; assay type: cell-based, mumps virus strain South Africa; settings: Mumps orthorubulavirus; titered through plaque assaying
Vero cells = assay: Cell growth rates after compound wash-out; assay type: cell-based; settings: 10 µM for 30 hours, 72-hour growth
Protocol: Vero cells were seeded at a density of 6×10^5 cells and incubated in the presence of 10 µM JMN3-003 or vehicle only for 30 hours at 37°C. Cells were then washed extensively and reseeded at a density of 1×10^5 cells per well, followed by continued incubation at 37°C and assessment of life/dead cell numbers every 24 hours using a Countess automated cell counter (Invitrogen). Cells were reseeded as before when fastest growing cultures approached confluency. Growth rates were calculated for each 24-hour time interval using the Prism software package (GraphPad Software Inc.) based on the formula Y = Y0*exp(K*X) with Y equaling life cell numbers, Y0 the Y value at the starting time (t0), and K the growth constant equaling ln(2)/doubling-time.

[2] = Cytotoxicity (metabolic activity), BHK-21; assay type: cell-based, Rodent-Syrian hamster; settings: Syrian hamster, BHK-21 cells, highest concentration assessed 75 µM
Protocol: (§1) A non-radioactive cytotoxicity assay (CytoTox 96 Non-Radioactive Cytotoxicity Assay, Promega) was employed to determine the metabolic activity of cell after exposure to the compound. In a 96-well plate format, 10,000 cells per well were incubated at 37°C for 24 hours in four replicates per concentration tested in the presence of compound in two-fold dilutions starting at 75 µM. Substrate was then added and color development measured at 490 nm using a BioRad plate reader. Values were calculated according to the formula [% toxicity = 100−((experimental-background)/(maximum(vehicle treated)-background)*100)]. Values were plotted in dose-response curves and, if applicable, CC50 concentrations calculated.

SOI Influenza A/Texas = assay: Virus yield reduction assay, SOI influenza A/Texas; assay type: cell-based, swine-origin influenza virus isolate S-OIV Texas; settings: genome copy numbers of released progeny particles by TaqMan RT-PCR
[3] = Metabolic stability in human liver S9 fractions; assay type: in vitro ADME
Protocol: JMN3-003 was mixed with liver S9 fractions (protein concentration 2.5 mg/ml) from pooled mixed gender humans (XenoTech) at a final concentration of 1 µM and reactions initiated by the addition of cofactors (1.14 mM NADPH, 1.43 mM glucose-6-phosphate, 1.43 mM uridine 5′-diphosphoglucuronic acid, 9.42 mM potassium chloride, 2.28 mM magnesium chloride) in 100 mM potassium phosphate buffer, pH 7.4. Samples were incubated at 37°C with mixing, aliquots removed after 0, 15, 30 and 60 minutes and subjected to reversed-phase LC-MS/MS (Applied Biosystems API 4000 QTRAP with heated nebulizer; Turbo IonSpray for JMN5-166) analysis. Peak areas were measured to calculate half life and percent of input compound remaining according to the formulas t1/2 = (−0.693/slope of linear regression analysis of log transformed peak area versus) and % input remaining = (peak area of test compound at tx/peak area of test compound at t0)*100. Positive controls to assess the metabolic competency of the liver S9 fractions were 7-Ethoxycoumarin, Propranolol, and Verapamil (Sigma), which were analyzed in parallel to the article. […] Aliquots were removed at distinct time points as indicated and analyzed by LC-MS/MS with detection of the compound at 254 nm. Values are expressed as percent of compound remaining at each time relative to the amount of that compound present at the starting time point.

Influenza A/WSN = assay: Virus yield reduction assay, influenza A/WSN; assay type: cell-based, influenza A strain WSN (H1N1)
cdc2-cyclin B kinase = assay: Immunoblot of cdc2-cyclin B kinase phosphorylation status; assay type: cell-based; settings: phospho-cdc2 (Tyr15)
HPIV3 = assay: microbe, parasite or virus in culture; assay type: cell-based, human parainfluenzavirus type 3; settings: Human respirovirus 3; titered through plaque assaying
MeV-Alaska particles = assay: Virus pre-incubation (virucidal activity) assay; assay type: cell-based, measles virus; settings: 1.0 µM for 60 minutes, diluted to 1.0 nM
MeV-Alaska = assay type: cell-based, measles virus; settings: 100 nM, 40 hours
[4] = Cytotoxicity (metabolic activity), CHO; assay type: cell-based, Rodent-Chinese hamster; settings: Chinese hamster, CHO cells, highest concentration assessed 75 µM
Protocol: as §1

[5] = Cytotoxicity (metabolic activity), MDCK; assay type: cell-based, Canine-dog; settings: dog, MDCK cells, highest concentration assessed 75 µM
Protocol: as §1

[6] = system: different established cell lines (HeLa, A549, HepG2, Vero-Slam, MDCK); assay: Metabolic activity of different established cell lines; assay type: cell-based, human, primate, canine; settings: at 75 µM, 24 hours
Protocol: as §1

[7] = system: bronchial epithelial cells; assay: Metabolic activity of primary human bronchial epithelial cells; assay type: cell-based; settings: 24 hours exposure
Protocol: as §1

[8] = Stability in human plasma; settings: 120-minute incubation, 37°C
sindbis virus = assay type: cell-based; settings: compared with activity against myxoviruses
[9] = Cytotoxicity (metabolic activity), HeLa; assay type: cell-based; settings: human, HeLa cells, highest concentration assessed 75 µM
Protocol: as §1

smooth muscle cells = assay: Metabolic activity of primary human smooth muscle cells; assay type: cell-based; settings: 24 hours exposure
Protocol: as §1

in vitro = assay type: cell-based, Avian-chicken; settings: chicken; DF-1; highest concentration assessed 75 µM; read-out: CC50, Metabolic Activity
Protocol: as §1

Influenza A/PR/8/34 = assay: Virus yield reduction assay, influenza A/PR/8/34; assay type: cell-based, influenza A strain PR8/34 (H1N1); settings: genome copy numbers of released progeny particles by TaqMan RT-PCR

COc1ccc(-n2c(SC(C)C(=O)Nc3ccc(C)cc3Cl)nc3ccccc32)cc1 (stereo not shown) [JMN3-003]
EC50 (SOI Influenza A/Mexico): 10 ± 3 nM
MeV glycoprotein-mediated cell-to-cell fusion [1]: extensive membrane fusion indistinguishable from that seen in vehicle-treated controls
EC50 (MuV (S. Africa)): 33 ± 31 nM
proliferation rates after removal of compound (Vero cells): proliferation rates resumed those of untreated control cells
CC50 at 24 h [2]: > 75000 nM
EC50 (SOI Influenza A/Texas): 40 ± 10 nM
half-life at 1 µM ([3]; both sexes, human, liver S9 fractions, pH 7.4, human liver S9 fractions, up to 60 minutes, LC-MS/MS, calculated/extrapolated, read-out: half-life (t1/2)): ~3.33 h
input material remaining intact ([3]; human S-9 fractions, 60-minute exposure, 1 µM): approximately 80%
EC50 (Influenza A/WSN; Influenza A virus, WSN, HT-1080, host cell HT1080 (Human), read-out: EC50, Inhibition of Influenza A/WSN): 60 ± 2 nM
EC50 (Influenza A/WSN; Influenza A virus, WSN, MDCK, read-out: EC50, Inhibition of Influenza A/WSN): 10 nM
EC50 (Influenza A/WSN; Influenza A virus, WSN, NIH3T3, host cell NIH-3T3 (Rodent-mouse), read-out: EC50, Inhibition of Influenza A/WSN): > 10000 nM
EC50 (Influenza A/WSN; Influenza A virus, WSN, genome copy numbers of released progeny particles by TaqMan RT-PCR, read-out: EC50, Influenza A/WSN): 10 ± 8 nM
EC50 (Influenza A/WSN; Influenza A virus, WSN, host cell BHK-21 (Rodent-Syrian hamster), read-out: EC50, Inhibition of Influenza A/WSN): 80 ± 10 nM
EC50 (Influenza A/WSN; Influenza A virus, WSN, host cell CHO (Rodent-Chinese hamster), read-out: EC50, Inhibition of Influenza A/WSN): 70 ± 10 nM
EC50 (Influenza A/WSN; Influenza A virus, WSN, host cell DF-1 (Avian-chicken), read-out: EC50, Inhibition of Influenza A/WSN): > 10000 nM
EC50 (Influenza A/WSN; Influenza A virus, WSN, host cell HeLa (Human), read-out: EC50, Inhibition of Influenza A/WSN): 20 ± 10 nM
EC50 (Influenza A/WSN; host cell MEL B16 (Rodent-mouse), read-out: EC50, Inhibition of Influenza A/WSN): > 10000 nM
phosphorylation status of cdc2-cyclin B kinase (cdc2-cyclin B kinase): increased steady state levels of phosphorylated cdc2-cyclin B kinase
EC50 (HPIV3): 80 ± 10 nM
antiviral effect of preincubation of viral particles (virucidal activity) (MeV-Alaska particles): lacked any appreciable antiviral effect
reduction of viral mRNA and antigenome copy numbers relative to vehicle (MeV-Alaska): > 100 fold
CC50 at 24 h [4]: > 75000 nM
CC50 at 24 h [5]: > 75000 nM
metabolic activity of different established cell lines [6]: unchanged
metabolic activity of primary human bronchial epithelial cells [7]: only slightly affected
stability in human plasma [8]: virtually unaffected
activity against sindbis virus (sindbis virus): to a lesser degree
CC50 at 24 h [9]: > 75000 nM
metabolic activity of primary human smooth muscle cells (smooth muscle cells): unaffected
CC50 at 24 h (in vitro): > 75000 nM
EC50 (Influenza A/PR/8/34): 10 ± 1 nM
